Measured values: ChEMBL document CHEMBL1201862, “PubChem BioAssay data set” (2004)
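Five concentrations, 48 hours, 96-well plates. Abbreviation: GI50, concentration required for 50% inhibition of growth.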 Activity calls are given as the source filed them. No stated cut-off is given here; in the data, active = GI50 up to about 1.1 µM and inactive = higher.

Legend:
Assay in all cases: DTP human tumour cell line panel, 48 h
HOP-18 = test system: HOP-18
SF-295 = test system: SF-295
PC-3 = test system: PC-3
MCF7 = test system: MCF7
NCI-H23 = test system: NCI-H23
A498 = test system: A498
BT-549 = test system: BT-549
HL-60 = test system: HL-60
SK-MEL-28 = test system: SK-MEL-28
HCT-116 = test system: HCT-116
HCT-15 = test system: HCT-15
HCC 2998 = test system: HCC 2998
OVCAR-4 = test system: OVCAR-4
UACC-62 = test system: UACC-62
Malme-3M = test system: Malme-3M
U-251 = test system: U-251
RXF 393 = test system: RXF 393
SF-268 = test system: SF-268
SN12C = test system: SN12C
CAKI-1 = test system: CAKI-1

In the case of `COc1ccc(NC(=O)CSc2nnc(-c3ccc(/N=C\c4ccc(Cl)cc4)cc3)o2)cc1`, the GI50 (HOP-18) is reported as 12.5 µM (inactive), the GI50 (SF-295) is reported as 48.5 µM (inactive) and the GI50 (PC-3) is reported as 22 µM (inactive). For the same molecule, the GI50 (MCF7) was 23.2 µM (inactive), the GI50 (NCI-H23) was 36 µM (inactive) and the GI50 (A498) was > 100 µM (inactive). The GI50 (BT-549) was 17 µM (inactive), the GI50 (HL-60) was 4.85 µM (inactive) and the GI50 (SK-MEL-28) was > 45.1 µM (inactive). For the same molecule, the GI50 (HCT-116) was 14.2 µM (inactive), the GI50 (HCT-15) was 4.78 µM and the GI50 (HCC 2998) was 52.8 µM (inactive). The GI50 (OVCAR-4) was 23.5 µM (inactive), the GI50 (UACC-62) was 28.8 µM (inactive) and the GI50 (Malme-3M) was 34 µM (inactive). The GI50 (U-251) was 24.8 µM (inactive), the GI50 (RXF 393) was > 69.7 µM (inactive) and the GI50 (SF-268) was 13.6 µM (inactive). For the same molecule, the GI50 (SN12C) was 16.1 µM (inactive).
In the case of `Nc1ccc2c(c1)CN1C(=O)c3ccccc3C1=N2` [DANIQUIDONE], the GI50 (HOP-18) is reported as 108 µM (inactive), the GI50 (SF-295) is reported as 12.9 µM (inactive) and the GI50 (PC-3) is reported as 58.1 µM (inactive). The GI50 (MCF7) was 39.5 µM (inactive), the GI50 (NCI-H23) was 69 µM (inactive) and the GI50 (A498) was 43.1 µM (inactive). For the same molecule, the GI50 (BT-549) was > 93.3 µM (inactive), the GI50 (CAKI-1) was 41.4 µM (inactive) and the GI50 (HL-60) was 8.3 µM (inactive). The GI50 (SK-MEL-28) was > 119 µM (inactive), the GI50 (HCT-116) was 16.7 µM (inactive) and the GI50 (HCT-15) was 34.8 µM. The GI50 (HCC 2998) was 63 µM (inactive), the GI50 (OVCAR-4) was 91.8 µM (inactive) and the GI50 (UACC-62) was 32.6 µM (inactive). The GI50 (Malme-3M) was 67 µM (inactive), the GI50 (U-251) was 27.7 µM (inactive) and the GI50 (RXF 393) was 34.4 µM (inactive). The GI50 (SF-268) was 29 µM (inactive) and the GI50 (SN12C) was 33.3 µM (inactive).
With `COc1cccc2c1C(=O)c1c(O)c3c(c(O)c1C2=O)C[C@@](O)(C(C)=O)C[C@@H]3OC1CC(N(C)C)C(O)C(C)O1` (some centres undefined) the GI50 (HOP-18) was 0.0859 µM (active), the GI50 (SF-295) was 0.00425 µM (active) and the GI50 (PC-3) was 0.000206 µM (active). The GI50 (MCF7) was 0.01 µM (active), the GI50 (NCI-H23) was 0.00508 µM (active) and the GI50 (A498) was 0.00464 µM (active). The GI50 (BT-549) was 0.00114 µM (active), the GI50 (CAKI-1) was 0.00904 µM (active) and the GI50 (HL-60) was 0.00387 µM (active). For the same molecule, the GI50 (SK-MEL-28) was 0.00516 µM (active), the GI50 (HCT-116) was 0.00169 µM (active) and the GI50 (HCT-15) was 0.00389 µM. For the same molecule, the GI50 (HCC 2998) was 0.0333 µM (active), the GI50 (OVCAR-4) was 0.0306 µM (active) and the GI50 (UACC-62) was 0.00427 µM (active). The GI50 (Malme-3M) was 0.0405 µM (active), the GI50 (U-251) was 0.00425 µM (active) and the GI50 (RXF 393) was 0.00681 µM (active). For the same molecule, the GI50 (SF-268) was 0.00436 µM (active) and the GI50 (SN12C) was 0.00357 µM (active).
With `CC(C)(C)N1CC1CNC(=O)C(=O)NCC1CN1C(C)(C)C` (centres undefined) the GI50 (HOP-18) was 1.07 µM (active), the GI50 (SF-295) was 3.33 µM (inactive) and the GI50 (PC-3) was 14.9 µM (inactive). For the same molecule, the GI50 (MCF7) was 9.31 µM (inactive), the GI50 (NCI-H23) was 2.74 µM (inactive) and the GI50 (A498) was 2.68 µM (inactive). For the same molecule, the GI50 (BT-549) was 29.9 µM (inactive), the GI50 (CAKI-1) was 6.31 µM (inactive) and the GI50 (HL-60) was 0.411 µM (active). For the same molecule, the GI50 (SK-MEL-28) was 5.42 µM (inactive), the GI50 (HCT-116) was 3.97 µM (inactive) and the GI50 (HCT-15) was 3.74 µM. The GI50 (HCC 2998) was 3.16 µM (inactive), the GI50 (OVCAR-4) was 28.5 µM (inactive) and the GI50 (UACC-62) was 2.18 µM (inactive). For the same molecule, the GI50 (Malme-3M) was 3.4 µM (inactive), the GI50 (U-251) was 3.05 µM (inactive) and the GI50 (RXF 393) was 1.67 µM (inactive). The GI50 (SF-268) was 3.03 µM (inactive) and the GI50 (SN12C) was 2.33 µM (inactive).
In the case of `CCCCCCCCCCCCCCCCCC(=O)Nc1ccn(C2OC(CO)C(O)C2O)c(=O)n1` (centres undefined), the GI50 (HOP-18) is reported as > 100 µM (inactive), the GI50 (SF-295) is reported as > 85.1 µM (inactive) and the GI50 (PC-3) is reported as 4.92 µM (inactive). For the same molecule, the GI50 (MCF7) was 2.06 µM (inactive), the GI50 (NCI-H23) was 4.8 µM (inactive) and the GI50 (A498) was 15.3 µM (inactive). The GI50 (BT-549) was > 54.2 µM (inactive), the GI50 (CAKI-1) was 10.5 µM (inactive) and the GI50 (HL-60) was 3.43 µM (inactive). The GI50 (SK-MEL-28) was 31.9 µM (inactive), the GI50 (HCT-116) was 3.32 µM (inactive) and the GI50 (HCT-15) was 33 µM. For the same molecule, the GI50 (HCC 2998) was 8.36 µM (inactive), the GI50 (OVCAR-4) was > 100 µM (inactive) and the GI50 (UACC-62) was 40.3 µM (inactive). The GI50 (Malme-3M) was > 27.9 µM (inactive), the GI50 (U-251) was 19.4 µM (inactive) and the GI50 (RXF 393) was 26.8 µM (inactive). The GI50 (SF-268) was 20.1 µM (inactive) and the GI50 (SN12C) was 26.1 µM (inactive).
